Results as given in US9187467B2, “2-phenyl benzothiazole linked imidazole compounds as potential anticancer agents and process for the preparation thereof” (Council of Scientific and Industrial Research, priority 2012, dated 2015).
Read-outs that look alike come from different tables or passages of the source.

What was measured:
OVCAR-4 = test: SRB anticancer assay, ovarian; assay type: cell-based, human; conditions: Homo sapiens, OVCAR-4, 48 h
A498 = test: SRB anticancer assay, renal; assay type: cell-based, human; conditions: Homo sapiens, A498, 48 h
A549/ATCC = test: SRB anticancer assay, non-small lung; assay type: cell-based, human; conditions: Homo sapiens, 48 h
NCI-H23 = test: SRB anticancer assay, non-small lung; assay type: cell-based, human; conditions: Homo sapiens, NCI-H23, 48 h
MCF7 = test: SRB anticancer assay, breast; assay type: cell-based, human; conditions: Homo sapiens, MCF7, 48 h
SK-MEL-5 = test: SRB anticancer assay, melanoma; assay type: cell-based, human; conditions: Homo sapiens, SK-MEL-5, 48 h
SF-268 = test: SRB anticancer assay, CNS; assay type: cell-based, human; conditions: Homo sapiens, SF-268, 48 h
MALME-3M = test: SRB anticancer assay, melanoma; assay type: cell-based, human; conditions: Homo sapiens, Malme-3M, 48 h
LOX IMVI = test: SRB anticancer assay, melanoma; assay type: cell-based, human; conditions: Homo sapiens, 48 h
TK-10 = test: SRB anticancer assay, renal; assay type: cell-based, human; conditions: Homo sapiens, TK-10, 48 h
T-47D = test: SRB anticancer assay, breast; assay type: cell-based; conditions: Homo sapiens, T47D, 48 h
HCT-116 = test: SRB anticancer assay, colon; assay type: cell-based, human; conditions: Homo sapiens, HCT-116, 48 h
SF-295 = test: SRB anticancer assay, CNS; assay type: cell-based, human; conditions: Homo sapiens, SF-295, 48 h
Colon cancer cell lines = test: SRB anticancer assay, panel result; assay type: cell-based, human
Protocol: (§1) The compounds were evaluated for anticancer activity against sixty human cancer cells derived from nine cancer types (leukemia cell line, non-small-cell lung cell line, colon cell line, CNS cell line, melanoma cell line, ovarian cell line, prostate cell line, renal cancer cell line and breast cancer cell line) as shown in Table 1. For each compound, dose response curves for each cell line were measured at a minimum of five concentrations at 10 fold dilutions. A protocol of 48 h continuous drug exposure was used and a sulforhodamine B (SRB) protein assay was used to estimate cell viability or growth.

Renal cancer cell lines = test: SRB anticancer assay, panel result; assay type: cell-based, human
Protocol: as §1

CNS cancer cell lines = test: SRB anticancer assay, panel result; assay type: cell-based, human
Protocol: as §1

[1] = test system: Prostate cancer cell lines; test: SRB anticancer assay, panel result; assay type: cell-based, human
Protocol: as §1

Breast cancer cell lines = test: SRB anticancer assay, panel result; assay type: cell-based, human
Protocol: as §1

[2] = test system: Leukemia cancer cell lines; test: SRB anticancer assay, panel result; assay type: cell-based, human
Protocol: as §1

[3] = test system: Non-small cell lung cancer cell lines; test: SRB anticancer assay, panel result; assay type: cell-based, human
Protocol: as §1

[4] = test system: Ovarian cancer cell lines; test: SRB anticancer assay, panel result; assay type: cell-based, human
Protocol: as §1

[5] = test system: Melanoma cancer cell lines; test: SRB anticancer assay, panel result; assay type: cell-based, human
Protocol: as §1

NCI-H226 = test: SRB anticancer assay, non-small lung; assay type: cell-based, human; conditions: Homo sapiens, NCI-H226, 48 h
MDA-MB-231/ATCC = test: SRB anticancer assay, breast; assay type: cell-based, human; conditions: Homo sapiens, MDA-MB-231, 48 h, MDA-MB-231/ATCC (row head MDA-MB-), 48 h; read-out: GI50
UO-31 = test: SRB anticancer assay, renal; assay type: cell-based, human; conditions: Homo sapiens, UO-31, 48 h
DU-145 = test: SRB anticancer assay, prostate; assay type: cell-based, human; conditions: Homo sapiens, DU-145, 48 h
OVCAR-3 = test: SRB anticancer assay, ovarian; assay type: cell-based, human; conditions: Homo sapiens, OVCAR-3, 48 h

Structure (SMILES): COc1cc(OC)c2sc(-c3ccc(-n4cncc4-c4ccc(OC)c(OC)c4)cc3)nc2c1 [Compound 6e, 2-(4-(5-(3,4-Dimethoxyphenyl)-1H-imidazol-1-yl)phenyl)-5,7-dimethoxybenzo[d]thiazole]
- GI50 (OVCAR-4): 4.21 µM
- GI50 (A498): 2.15 µM
- GI50 (A549/ATCC): 41.8 µM
- GI50 (NCI-H23): > 100 µM
- GI50 (MCF7): 5.36 µM
- GI50 (SK-MEL-5): 3.61 µM
- GI50 (SF-268): 9.96 µM
- GI50 (MALME-3M): 59.8 µM
- GI50 (LOX IMVI): > 100 µM
- GI50 (TK-10): > 100 µM
- GI50 (T-47D): 4.15 µM
- GI50 (HCT-116): 5.48 µM
- GI50 (SF-295): 7 µM
- mean graph midpoint value (MG_MID) of log10 TGI (Colon cancer cell lines; Colon panel, total inhibition of net cell growth): >−4.0
- LC50 (Colon cancer cell lines; Homo sapiens, Colon panel, 50% net cell death, read-out: mean graph midpoint value (MG_MID) of Log10 LC50 (converted)): > 100 µM
- GI50 (Colon cancer cell lines; Homo sapiens, Colon panel, read-out: mean graph midpoint value (MG_MID) of Log10 GI50 (converted)): 25.1 µM
- GI50 (Colon cancer cell lines; Homo sapiens, seven colon cancer cell lines, exposure at least 48 h, read-out: GI50, range over the panel): 5.48 to 7.13 µM
- CC50 (Renal cancer cell lines; Homo sapiens, Renal panel, 50% net cell death, read-out: mean graph midpoint value (MG_MID) of Log10 LC50 (converted)): > 100 µM
- GI50 (Renal cancer cell lines; Homo sapiens, Renal panel, read-out: mean graph midpoint value (MG_MID) of Log10 GI50 (converted)): 25.1 µM
- GI50 (Renal cancer cell lines; Homo sapiens, eight renal cancer cell lines, exposure at least 48 h, read-out: GI50, range over the panel): 2.15 to 3.17 µM
- mean graph midpoint value (MG_MID) of log10 TGI (Renal cancer cell lines; Renal panel, total inhibition of net cell growth): >−4.0
- mean graph midpoint value (MG_MID) of log10 TGI (CNS cancer cell lines; CNS panel, total inhibition of net cell growth): −4.06
- CC50 (CNS cancer cell lines; Homo sapiens, CNS panel, 50% net cell death, read-out: mean graph midpoint value (MG_MID) of Log10 LC50 (converted)): > 100 µM
- GI50 (CNS cancer cell lines; Homo sapiens, CNS panel, read-out: mean graph midpoint value (MG_MID) of Log10 GI50 (converted)): 19.1 µM
- GI50 (CNS cancer cell lines; Homo sapiens, six CNS cancer cell lines, exposure at least 48 h, read-out: GI50, range over the panel): 7 to 9.96 µM
- LC50 ([1]; Homo sapiens, Prostate panel, 50% net cell death, read-out: mean graph midpoint value (MG_MID) of Log10 LC50 (converted)): > 100 µM
- GI50 ([1]; Homo sapiens, Prostate panel, read-out: mean graph midpoint value (MG_MID) of Log10 GI50 (converted)): 10.2 µM
- GI50 ([1]; Homo sapiens, two prostate cancer cell lines (PC-3, DU-145), exposure at least 48 h, read-out: GI50, range over the panel): 3.66 to 27.9 µM
- mean graph midpoint value (MG_MID) of log10 TGI ([1]; Prostate panel, total inhibition of net cell growth): >−4.0
- mean graph midpoint value (MG_MID) of log10 TGI (Breast cancer cell lines; Breast panel, total inhibition of net cell growth): >−4.0
- CC50 (Breast cancer cell lines; Homo sapiens, Breast panel, 50% net cell death, read-out: mean graph midpoint value (MG_MID) of Log10 LC50 (converted)): > 100 µM
- GI50 (Breast cancer cell lines; Homo sapiens, Breast panel, read-out: mean graph midpoint value (MG_MID) of Log10 GI50 (converted)): 7.41 µM
- GI50 (Breast cancer cell lines; Homo sapiens, six breast cancer cell lines, exposure at least 48 h, read-out: GI50, range over the panel): 3.78 to 28.4 µM
- LC50 ([2]; Homo sapiens, Leukemia panel, 50% net cell death, read-out: mean graph midpoint value (MG_MID) of Log10 LC50 (converted)): > 100 µM
- GI50 ([2]; Homo sapiens, Leukemia panel, read-out: mean graph midpoint value (MG_MID) of Log10 GI50 (converted)): 16.2 µM
- GI50 ([2]; Homo sapiens, six leukemia cancer cell lines, exposure at least 48 h, read-out: GI50, range over the panel): 3.03 to 5.88 µM
- mean graph midpoint value (MG_MID) of log10 TGI ([2]; Leukemia panel, total inhibition of net cell growth): >−4.0
- LC50 ([3]; Homo sapiens, Non-small cell lung panel, 50% net cell death, read-out: mean graph midpoint value (MG_MID) of Log10 LC50 (converted)): > 100 µM
- GI50 ([3]; Homo sapiens, Non-small cell lung panel, read-out: mean graph midpoint value (MG_MID) of Log10 GI50 (converted)): 22.9 µM
- GI50 ([3]; Homo sapiens, nine Non-small cell lung cancer cell lines, exposure at least 48 h, read-out: GI50, range over the panel): 5.26 to 41.8 µM
- mean graph midpoint value (MG_MID) of log10 TGI ([3]; Non-small cell lung panel, total inhibition of net cell growth): −4.01
- LC50 ([4]; Homo sapiens, Ovarian panel, 50% net cell death, read-out: mean graph midpoint value (MG_MID) of Log10 LC50 (converted)): > 100 µM
- GI50 ([4]; Homo sapiens, Ovarian panel, read-out: mean graph midpoint value (MG_MID) of Log10 GI50 (converted)): 29.5 µM
- GI50 ([4]; Homo sapiens, seven ovarian cancer cell lines, exposure at least 48 h, read-out: GI50, range over the panel): 3.85 to 56.1 µM
- mean graph midpoint value (MG_MID) of log10 TGI ([4]; Ovarian panel, total inhibition of net cell growth): >−4.0
- LC50 ([5]; Homo sapiens, Melanoma panel, 50% net cell death, read-out: mean graph midpoint value (MG_MID) of Log10 LC50 (converted)): > 100 µM
- GI50 ([5]; Homo sapiens, Melanoma panel, read-out: mean graph midpoint value (MG_MID) of Log10 GI50 (converted)): 40.7 µM
- GI50 ([5]; Homo sapiens, nine melanoma cancer cell lines, exposure at least 48 h, read-out: GI50, range over the panel): 3.61 to 59.8 µM
- mean graph midpoint value (MG_MID) of log10 TGI ([5]; Melanoma panel, total inhibition of net cell growth): >−4.0
- GI50 (NCI-H226): 6.44 µM
- GI50 (MDA-MB-231/ATCC): 28.4 µM
- GI50 (UO-31): 31.7 µM
- GI50 (DU-145): 27.9 µM
- GI50 (OVCAR-3): 3.85 µM
